Laboratory results as given in ChEMBL document CHEMBL1156989, “Discovery of novel small molecule orally bioavailable C-X-C chemokine receptor 4 antagonists that are potent inhibitors of T-tropic (X4) HIV-1 replication” (J Med Chem, 2010).

Tests used:
[1] = system: Human immunodeficiency virus 1; test: Ratio of IC90 for HIV1 NL4.3 infected in human PBMC to IC90 for HIV1 NL4.3 infected in human MT4 cells; format: functional
[2] = system: Human immunodeficiency virus 1; test: Antiviral activity against HIV1 3B infected in human MT-4 cells assessed as inhibition of virus-induced cytopathicity; conditions: Human immunodeficiency virus 1, 3B
[3] = Cytotoxicity against human MT4 cells expressing CD4 and CXCR4 assessed as cell viability; conditions: MT4 cells expressing CD4 and CXCR4
[4] = target: C-X-C chemokine receptor type 4 (Homo sapiens, UniProt P61073); test: Inhibition of anti-CXCR4 12G5 monoclonal antibody to CXCR4 in human SUP-T1 cells pretreated for 30 mins by flow cytometry; format: cell-based
[5] = system: Human immunodeficiency virus 1; test: Antiviral activity against HIV1 NL4.3 infected in human MT4 cells expressing CD4 and CXCR4 assessed as inhibition of virus-induced cytopathicity; format: functional, organism-based; conditions: Human immunodeficiency virus 1, NL4.3, MT4
[6] = system: Human immunodeficiency virus 1; test: Antiviral activity against HIV1 NL4.3 infected in human PBMC assessed as inhibition of virus-induced cytopathicity; format: functional, organism-based; conditions: Human immunodeficiency virus 1, NL4.3
[7] = system: Human immunodeficiency virus 1; test: Ratio of IC50 for HIV1 NL4.3 infected in human PBMC to IC50 for HIV1 NL4.3 infected in human MT4 cells; format: functional

C-X-C chemokine receptor type 4, sequence (P61073 whole entry): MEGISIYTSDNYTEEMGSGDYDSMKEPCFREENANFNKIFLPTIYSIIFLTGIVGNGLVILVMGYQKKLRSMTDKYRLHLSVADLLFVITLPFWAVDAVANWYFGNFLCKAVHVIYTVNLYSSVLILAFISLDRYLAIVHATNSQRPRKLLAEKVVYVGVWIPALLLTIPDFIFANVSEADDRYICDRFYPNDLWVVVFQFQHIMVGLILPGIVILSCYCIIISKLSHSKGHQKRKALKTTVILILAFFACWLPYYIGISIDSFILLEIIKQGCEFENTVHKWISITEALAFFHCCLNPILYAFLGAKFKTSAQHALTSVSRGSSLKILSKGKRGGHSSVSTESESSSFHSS

IC50 [2]: 60 nM
IC50 [4]: 250 nM
IC50 [5]: 60 nM
IC50 [6]: 277 nM
Compound: c1ccc(CNCc2ccc(CN(Cc3nc4ccccc4[nH]3)C3CCCc4cccnc43)cc2)nc1 (configuration not stated)
Ratio [1]: 4
CC50 [3]: 23000 nM
Ratio IC50 [7]: 5
